Legend:
[1] = target: T1, VKOR (Homo sapiens, UniProt Q9BQB6); test: Correlation of VKOR gene SNPs with warfarin maintenance dose in patients; type: in vivo
T1 construct: from tissue; host or cells: patients on warfarin (in vivo); genomic DNA from whole blood
From the text: The most prevalent isoform of the VKOR gene is about 4 kb long, has three exons and encodes an enzyme of 163 amino acids with a mass of 18.4 kDa.
Subjects were obtained from the UNC Coagulation Clinic in the Ambulatory Care Center. Informed consent was obtained by a trained genetic counselor. Subjects not fluent in English were excluded because of the lack of translators and the requirement for consent.
Genomic DNAs were extracted from the whole blood of subjects using QIAamp DNA Blood Mini Kit (QIAGEN cat#51104). The DNA concentration was adjusted to 10 ng/μL.
Approximately 10 ng of DNA was used for polymerase chain reaction (PCR) assays. The primers used to amplify the VKOR gene were: Exon 1-5′ […] (SEQ ID NO:29) and Exon 1-3′ […] (SEQ ID NO:30) for the 5′-UTR and Exon 1 region; Exon 2-5′ […] (SEQ ID NO:31) and Exon 2-3′ […] (SEQ ID NO:32) for the Exon 2 region; and Exon 3-5′ […] (SEQ ID NO:33) and Exon 3-3′ […] (SEQ ID NO:34) for the Exon3 and 3′-UTR region. Automated high throughput capillary electrophoresis DNA sequencing was used for detecting SNPs in the VKOR gene.
The assay reagents for SNP genotyping were from the Assay-by-Design™ service (Applied Biosystems, cat#4332072). The primers and probes (FAM™ and VIC™ dye-labeled) were designed using Primer Express software and were synthesized in an Applied Biosystems synthesizer. The primer pairs for each SNP are located at the upstream/downstream position of the SNP site and can generate less than 100 bp length of a DNA fragment in the PCR reaction. The FAM™ and VIC™ dye-labeled probes were designed to cover the SNP sites with a length of 15-16 nt.
The 2× TaqMan™ Universal PCR Master Mix, No AmpErase UNG (Applied Biosystems, cat#4324018) was used in the PCR reactions. Forty cycles of real-time PCR were performed in an Opticon II (MJ Research) machine. There was a 10 minute 95° C. preheat followed by 92° C. for 15 sec, 60° C. for 1 min. and then a plate reading. The results were read according to the signal value of FAM and VIC dye.
The difference of average dose between different genotypes was compared by analysis of variance (ANOVA) using SAS version 8.0 (SAS, Inc., Cary, N.C.). A two-sided p value less than 0.05 was considered significant.
Each marker was first analyzed independently.
The three VKOR SNPs are located within 2 kb distance of one another and are expected to be closely linked.

[2] = target: T1, VKOR; test: Warfarin sensitivity of VKOR (mGC11276) expressed in Sf9 insect cells; type: biochemical
Procedure: FIG. 4. VKOR activity was detected when mGC_11276 was expressed in Sf9 insect cells. ˜1×10^6 cells were used in this assay. […] Blank Sf9 cells served as a negative control and A549 cells as a reference.
siRNA transfected A549 cells were trypsinized and washed twice with cold PBS. 1.5×10^7 cells were taken for each VKOR assay. 200 μL buffer D (250 mM Na2HPO4—NaH2PO4, 500 mM KCI, 20% glycerol and 0.75% CHAPS, pH 7.4) was added to the cell pellet, followed by sonication of the cell lysate. For assays of solubilized microsomes, microsomes were prepared from 2×10^9 cells as described (Lin et al. (2002) “The putative vitamin K-dependent gamma-glutamyl carboxylase internal propeptide appears to be the propeptide binding site” J Biol Chem 277:28584-91); 10 to 50 μL of solubilized microsomes were used for each assay. Vitamin K epoxide was added to the concentration indicated in the figure legends and DTT was added to 4 mM to initiate the reaction. […] 500 μL hexane was added and the mixture was vortexed vigorously for 1 minute to extract the vitamin K and KO. After 5 minutes centrifugation, the upper organic layer was transferred to a 5-mL brown vial and dried with N2. 150 μL HPLC buffer, acetonitrile:isopropanol:water (100:7:2), was added to dissolve the vitamin K and KO and the sample was analyzed by HPLC on an A C-18 column (Vydac, cat#218TP54). […]

T1 sequence (Q9BQB6 whole entry): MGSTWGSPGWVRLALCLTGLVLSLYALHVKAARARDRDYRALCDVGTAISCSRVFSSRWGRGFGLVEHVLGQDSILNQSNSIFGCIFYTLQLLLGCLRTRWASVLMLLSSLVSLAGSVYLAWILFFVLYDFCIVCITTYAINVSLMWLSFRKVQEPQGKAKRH

- average warfarin dose ([1]; patients heterozygous for vk2581, n=17): 35.19±3.73 mg per week
- average warfarin dose ([1]; patients heterozygous for vk3294, n=25): 41.68±4.92 mg per week
- average warfarin dose ([1]; patients heterozygous for vk4769, n=19): 44.48±4.80 mg per week
- average warfarin dose ([1]; patients homozygous for vk2581, n=15): 31.14±6.2 mg per week
- average warfarin dose ([1]; patients homozygous for vk3294, n=22): 47.73±2.75 mg per week
- average warfarin dose ([1]; patients homozygous for vk4769, n=12): 47.56±3.86 mg per week
- warfarin dosage ([1]; patients with haplotype aaBBCC): 25.29±3.05
- average warfarin dose ([1]; patients with vk2581 wild type allele, n=26): 50.19±3.20 mg per week
- average warfarin dose ([1]; patients with vk4769 SNP wild type, n=27): 35.35±4.01 mg per week
- average warfarin dose ([1]; patients with wild-type vk3294 allele, n=11): 25.29±3.05 mg per week
- warfarin dosage ([1]; subjects with haplotype AAbbcc, n=7): 48.98±3.93
- warfarin sensitivity of VKOR activity ([2]; Sf9 cells transfected with mGC11276 cDNA): warfarin sensitive
- warfarin sensitivity of VKOR activity ([2]; microsomes from Sf9 cells expressing VKOR, 60 μM KO, 30° C., 15 minutes): warfarin-sensitive
SMILES: CC(=O)CC(c1ccccc1)c1c(O)c2ccccc2oc1=O (stereo not shown) [warfarin]
